Data: patent publication US20250352520A1, “USE OF DEXPRAMIPEXOLE FOR THE TREATMENT OF EOSINOPHILIC COPD” (Areteia Therapeutics, Inc., priority 2024, published 2025)

Details: Week 16; <50% AEC reduction at Week 16

Structure (SMILES): CCCN[C@@H]1CCc2nc(N)sc2C1 [Dexpramipexole, (6R)-2-amino-4,5,6,7-tetrahydro-6-(propylamino)benzothiazole]
- Pre-BD FEF25-75 % change from baseline, Max: −3%
- Pre-BD FEF25-75 % change from baseline, Mean ± SD: −14.5 ± 19.68%
- Pre-BD FEF25-75 % change from baseline, Median: −5.5%
- Pre-BD FEF25-75 % change from baseline, Min: −44%
- Pre-BD FEF25-75 % change from baseline, Q1: −25%
- Pre-BD FEF25-75 % change from baseline, Q3: −4%
- Pre-BD FEF25-75 Observed, Max: 780 mL/s
- Pre-BD FEF25-75 Observed, Mean ± SD: 505.0 ± 266.15 mL/s
- Pre-BD FEF25-75 Observed, Median: 505.0 mL/s
- Pre-BD FEF25-75 Observed, Min: 230 mL/s
- Pre-BD FEF25-75 Observed, Q1: 280 mL/s
- Pre-BD FEF25-75 Observed, Q3: 730 mL/s
- Pre-BD FEF25-75 change from baseline, Max: -10 mL/s
- Pre-BD FEF25-75 change from baseline, Mean ± SD: -170.0 ± 293.94 mL/s
- Pre-BD FEF25-75 change from baseline, Median: -30.0 mL/s
- Pre-BD FEF25-75 change from baseline, Min: -610 mL/s
- Pre-BD FEF25-75 change from baseline, Q1: -330 mL/s
- Pre-BD FEF25-75 change from baseline, Q3: -10 mL/s
- Pre-BD FEV1 % change from baseline, Max: 3%
- Pre-BD FEV1 % change from baseline, Mean ± SD: −11.4 ± 15.14%
- Pre-BD FEV1 % change from baseline, Median: −8.5%
- Pre-BD FEV1 % change from baseline, Min: −32%
- Pre-BD FEV1 % change from baseline, Q1: −22%
- Pre-BD FEV1 % change from baseline, Q3: 0%
- Pre-BD FEV1 Observed, Max: 1660 mL
- Pre-BD FEV1 Observed, Mean ± SD: 1280.0 ± 399.67 mL
- Pre-BD FEV1 Observed, Median: 1370.0 mL
- Pre-BD FEV1 Observed, Min: 720 mL
- Pre-BD FEV1 Observed, Q1: 1020 mL
- Pre-BD FEV1 Observed, Q3: 1540 mL
- Pre-BD FEV1 change from baseline, Max: 50 mL
- Pre-BD FEV1 change from baseline, Mean ± SD: -192.5 ± 318.58 mL
- Pre-BD FEV1 change from baseline, Median: -80.0 mL
- Pre-BD FEV1 change from baseline, Min: -660 mL
- Pre-BD FEV1 change from baseline, Q1: -385 mL
- Pre-BD FEV1 change from baseline, Q3: 0 mL
- Pre-BD FVC % change from baseline, Max: 3%
- Pre-BD FVC % change from baseline, Mean ± SD: −3.2 ± 7.22%
- Pre-BD FVC % change from baseline, Median: −2.0%
- Pre-BD FVC % change from baseline, Min: −12%
- Pre-BD FVC % change from baseline, Q1: −9%
- Pre-BD FVC % change from baseline, Q3: 3%
- Pre-BD FVC Observed, Max: 3380 mL
- Pre-BD FVC Observed, Mean ± SD: 2900.0 ± 503.26 mL
- Pre-BD FVC Observed, Median: 2985.0 mL
- Pre-BD FVC Observed, Min: 2250 mL
- Pre-BD FVC Observed, Q1: 2510 mL
- Pre-BD FVC Observed, Q3: 3290 mL
- Pre-BD FVC change from baseline, Max: 80 mL
- Pre-BD FVC change from baseline, Mean ± SD: -95.0 ± 203.55 mL
- Pre-BD FVC change from baseline, Median: -80.0 mL
- Pre-BD FVC change from baseline, Min: -300 mL
- Pre-BD FVC change from baseline, Q1: -270 mL
- Pre-BD FVC change from baseline, Q3: 80 mL
- Pre-BD Peak Flow % change from baseline, Max: 930%
- Pre-BD Peak Flow % change from baseline, Mean ± SD: 236.0 ± 462.72%
- Pre-BD Peak Flow % change from baseline, Median: 8.1%
- Pre-BD Peak Flow % change from baseline, Min: −2%
- Pre-BD Peak Flow % change from baseline, Q1: 1%
- Pre-BD Peak Flow % change from baseline, Q3: 471%
- Pre-BD Peak Flow Observed, Max: 412 L/min
- Pre-BD Peak Flow Observed, Mean ± SD: 258.0 ± 118.14 L/min
- Pre-BD Peak Flow Observed, Median: 248.0 L/min
- Pre-BD Peak Flow Observed, Min: 124 L/min
- Pre-BD Peak Flow Observed, Q1: 186 L/min
- Pre-BD Peak Flow Observed, Q3: 331 L/min
- Pre-BD Peak Flow change from baseline, Max: 372 L/min
- Pre-BD Peak Flow change from baseline, Mean ± SD: 101.5 ± 180.70 L/min
- Pre-BD Peak Flow change from baseline, Median: 18.5 L/min
- Pre-BD Peak Flow change from baseline, Min: -3 L/min
- Pre-BD Peak Flow change from baseline, Q1: 5 L/min
- Pre-BD Peak Flow change from baseline, Q3: 199 L/min
